Data set [1] can be described thus: Storage stability of solid form (morphology and physicochemical characteristics). The following applies: solid material obtained after solvent recovery. The source says:
The merit of the process according to the present invention resides in that—product obtained after recovery is obtained in non-solvated amorphous form of Cabazitaxel. Said material was found devoid of any crystal lattice and adequately stable to handle and store for longer time (at least up to more than 6 months) without any significant or measurable change in its morphology and physicochemical characteristics.

For data set [2] the following is noted: cited from earlier work.
For data set [3] the following is noted: compared with acetone solvate form (Form A); cited from earlier work.

SMILES strings stand for the structures.

With `CO[C@H]1C(=O)[C@@]2(C)C([C@H](OC(=O)c3ccccc3)[C@]3(O)C[C@H](OC(=O)[C@H](O)[C@H](NC(=O)OC(C)(C)C)c4ccccc4)C(C)=C1C3(C)C)[C@]1(OC(C)=O)CO[C@@H]1C[C@@H]2OC` (stereo in doubt) [(2α,5β,7β,10β,13α)-4-acetoxy-13-({(2R,3S)-3[(tert-butoxy-carbonyl)amino]-2-hydroxy-3-phenylpropanoyl}oxy)-1-hydroxy-7,10-dimethoxy-9-oxo-5,20-epoxytax-11-en-2-yl benzoate], the “time handled and stored without any significant or measurable change in morphology and physicochemical characteristics” value in data set [1] is given as “more than 6 months”.
In the case of `CO[C@H]1C(=O)[C@@]2(C)C([C@H](OC(=O)c3ccccc3)[C@]3(O)C[C@H](OC(=O)[C@H](O)[C@H](NC(=O)OC(C)(C)C)c4ccccc4)C(C)=C1C3(C)C)[C@]1(OC(C)=O)CO[C@@H]1C[C@@H]2OC` (stereo partly drawn) [Cabazitaxel, (2α,5β,7β,10β,13α)-4-acetoxy-13-({(2R,3S)-3[(tert-butoxycarbonyl)amino]-2-hydroxy-3-phenylpropanoyl}oxy)-1-hydroxy-7,10-dimethoxy-9-oxo-5,20-epoxytax-11-en-2-yl benzoate], the solubility in water entry in data set [2] was “practically insoluble in water”.
`CO[C@H]1C(=O)[C@]2(C)[C@@H](OC)C[C@H]3OC[C@@]3(OC(C)=O)[C@H]2[C@H](OC(=O)c2ccccc2)[C@]2(O)C[C@H](OC(=O)[C@H](O)[C@@H](NC(=O)OC(C)(C)C)c3ccccc3)C(C)=C1C2(C)C` [Form D anhydrous, 4-acetoxy-2α-benzoyloxy-5β,20-epoxy-1-hydroxy-7β,10β-dimethoxy-9-oxotax-11-en-13α-yl (2R,3S)-3-tert-butoxycarbonylamino-2-hydroxy-3-phenyl-propionate]: the “stability of solid form” value in data set [3] was “highly stable, even more stable than acetone solvate form (Form A)”.
